According to ChEMBL document CHEMBL1201862, “PubChem BioAssay data set” (2004):
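96-well plates; 48 h exposure; 5 concentrations. Endpoints by linear interpolation between flanking doses. Not reached: highest tested concentration assigned. GI50: concentration for 50% inhibition of growth.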 Active and inactive are the calls of the source. No stated cut-off is given here; in the data, active = GI50 up to about 1.1 µM and inactive = higher.

Tests used:
Test in all cases: inhibition of tumour cell growth, NCI panel, 48 h
[1] = system: PC-3
[2] = system: DU-145
[3] = system: SR
[4] = system: Malme-3M
[5] = system: SF-268
[6] = system: HT-29
[7] = system: UO-31
[8] = system: RXF 393
[9] = system: MOLT-4
[10] = system: ACHN
[11] = system: M14
[12] = system: KM12
[13] = system: SK-MEL-28
[14] = system: MDA-MB-435
[15] = system: RPMI-8226
[16] = system: U-251
[17] = system: A549
[18] = system: BT-549
[19] = system: SK-MEL-5
[20] = system: OVCAR-3
[21] = system: Hs-578T
[22] = system: COLO 205
[23] = system: NCI-H460
[24] = system: HOP-62
[25] = system: SNB-19
[26] = system: SF-539
[27] = system: MCF7
[28] = system: MDA-N
[29] = system: HL-60
[30] = system: HCT-15
[31] = system: LOX IMVI
[32] = system: SNB-75
[33] = system: SK-MEL-2
[34] = system: SF-295
[35] = system: EKVX
[36] = system: CCRF-CEM
[37] = system: NCI-H522
[38] = system: MDA-MB-231
[39] = system: SN12C
[40] = system: HCC 2998
[41] = system: NCI/ADR-RES
[42] = system: SW-620
[43] = system: IGROV-1
[44] = system: NCI-H23
[45] = system: OVCAR-5
[46] = system: UACC-62
[47] = system: TK-10
[48] = system: 786-0
[49] = system: HCT-116
[50] = system: K562
[51] = system: OVCAR-8
[52] = system: UACC-257
[53] = system: OVCAR-4
[54] = system: NCI-H226
[55] = system: HOP-92
[56] = system: A498
[57] = system: SK-OV-3
[58] = system: CAKI-1

Measured: GI50

C=CCCC(CCC=C)(C(=O)O)C(=O)O
inactive: [1] > 100 µM | [2] > 100 µM | [3] > 100 µM | [4] > 100 µM | [5] > 100 µM | [6] > 100 µM | [7] > 100 µM | [8] > 100 µM | [9] > 100 µM | [10] > 100 µM | [11] > 100 µM | [12] > 100 µM | [13] > 100 µM | [14] > 100 µM | [15] > 100 µM | [16] > 100 µM | [17] > 100 µM | [18] > 100 µM | [19] > 100 µM | [20] > 100 µM | [21] > 100 µM | [22] > 100 µM | [23] > 100 µM | [24] > 100 µM | [25] > 100 µM | [26] > 100 µM | [27] > 100 µM | [28] > 100 µM | [29] > 100 µM | [31] > 100 µM | [32] > 100 µM | [33] > 100 µM | [34] > 100 µM | [35] > 100 µM | [36] > 100 µM | [37] > 100 µM | [38] > 100 µM | [39] > 100 µM | [40] > 100 µM | [41] > 100 µM | [42] > 100 µM | [43] > 100 µM | [44] > 100 µM | [45] > 100 µM | [46] > 100 µM | [47] > 100 µM | [48] > 100 µM | [49] > 100 µM | [50] > 100 µM | [51] > 100 µM | [52] > 100 µM
> 100 µM: [30]

Cc1ccc(C(=O)C2=CN=C3C(=O)N(c4ccccc4)N(C)C3(C)C2=N)cc1 (centres undefined)
> 100 µM: [30]
inactive: [53] > 100 µM | [1] > 100 µM | [2] > 100 µM | [3] > 100 µM | [54] > 100 µM | [4] > 100 µM | [7] > 100 µM | [55] > 100 µM | [8] > 100 µM | [56] > 100 µM | [9] > 100 µM | [10] > 100 µM | [11] > 100 µM | [12] > 100 µM | [57] > 100 µM | [14] > 100 µM | [15] > 100 µM | [16] > 100 µM | [17] > 100 µM | [18] > 100 µM | [19] > 100 µM | [20] > 100 µM | [22] > 100 µM | [23] > 100 µM | [26] > 100 µM | [27] > 100 µM | [28] > 100 µM | [29] > 100 µM | [31] > 100 µM | [32] > 100 µM | [33] > 100 µM | [34] > 100 µM | [35] > 100 µM | [36] > 100 µM | [37] > 100 µM | [38] > 100 µM | [39] > 100 µM | [40] > 100 µM | [41] > 100 µM | [42] > 100 µM | [43] > 100 µM | [44] > 100 µM | [45] > 100 µM | [46] > 100 µM | [58] > 100 µM | [47] > 100 µM | [48] > 100 µM | [49] > 100 µM | [50] > 100 µM | [51] > 100 µM | [52] > 100 µM
